Among the data in US8071565B2 (Novartis AG, priority 2006, dated 2011) are Ki values, retold here.

The target in this test is adenosine A2A receptor (Homo sapiens, UniProt P29274). Put plainly: adenosine A2A receptor agonist assay (method of Murphree et al, Mol Pharmacol 61, 455-462, 2002). In kind it is binding. The following applies: method of L. J. Murphree et al. From the text:
Compounds of formula (I) and their pharmaceutically acceptable salts are useful as pharmaceuticals. In particular, they activate the adenosine A2A receptor, i.e., they act as A2A receptor agonists.

Structures can show the parent of a compound that is named as a salt.

Chain of adenosine A2A receptor (P29274 whole entry): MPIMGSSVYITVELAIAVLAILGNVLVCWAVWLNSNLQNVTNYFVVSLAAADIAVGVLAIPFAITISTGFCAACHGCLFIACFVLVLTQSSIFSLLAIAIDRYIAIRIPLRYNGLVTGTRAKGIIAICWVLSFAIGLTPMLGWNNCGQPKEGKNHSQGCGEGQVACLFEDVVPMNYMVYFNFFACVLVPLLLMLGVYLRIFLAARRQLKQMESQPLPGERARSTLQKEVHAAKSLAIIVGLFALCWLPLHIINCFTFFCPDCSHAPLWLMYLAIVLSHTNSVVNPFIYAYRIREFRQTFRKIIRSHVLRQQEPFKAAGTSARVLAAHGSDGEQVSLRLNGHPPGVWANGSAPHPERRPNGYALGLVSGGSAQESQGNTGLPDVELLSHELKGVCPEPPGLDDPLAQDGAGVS

Broadly, the Ki is a dissociation constant, usually derived from enzyme kinetics or from competition with a known ligand. `C[C@@H]1NC(=O)N([C@H]2C[C@@H](n3cnc4c(NCC(c5ccccc5)c5ccccc5)nc(N5CC[C@@H](NC(=O)Nc6cccnc6)C5)nc43)[C@H](O)[C@@H]2O)C1=O` [Example C1] registered a Ki of 89 nM.
As for `O=C(Nc1cccnc1)N[C@@H]1CCN(c2nc(NCC(c3ccccc3)c3ccccc3)c3ncn([C@@H]4C[C@H](N5C(=O)CNC5=O)[C@@H](O)[C@H]4O)c3n2)C1` [Example C2, 1-{(R)-1-[9-[(1R,2S,3R,4S)-4-(2,5-Dioxo-imidazolidin-1-yl)-2,3-dihydroxy-cyclopentyl]-6-(2,2-diphenyl-ethylamino)-9H-purin-2-yl]-pyrrolidin-3-yl}-3-pyridin-3-yl-urea trifluoroacetate], affinity was put at a Ki of 33 nM. Compared with the last compound, the Ki is about 2.7-fold lower.
